The nature of series [1]: Tolerance assay in mice. It is filed as in vivo, Balb/c mice. Particulars: 10 mg/kg QD oral. How it is done:
(§1) Balb/c mice were used as test animals.
The solution was subjected to ultrasound for 10 minutes to obtain a colorless and clear solution with a concentration of 1 mg/mL.
After an overnight fast, Balb/c mice (3 male and 3 female) were administrated orally with the test compound at an administration dose of 10 mg/kg and an administration volume of 10 mL/kg.
The mice were weighed daily before and after administration, and abnormal responses were observed. The mice were fed four hours after administration.

A short description of series [2]: Pharmacokinetics assay in mice, single intravenous injection. Format: in vivo. The conditions noted are these: male Balb/c mice. As for the experimental part: as §1
The solution was subjected to ultrasound to obtain a clear solution. The solution was filtered with a 0.22 μm water filter, and the filtrate was the formulation for intravenous administration (i.v.). The concentration was 0.2 mg/mL.
After an overnight fast, male Balb/c mice were administered intravenously with the test compounds at an administration dose of 1 mg/kg and an administration volume of 5 mL/kg.
Blood was taken before administration and at 0 minute, 5 minutes, 15 minutes, 0.5 hour, 1.0 hour, 2.0 hours, 4.0 hours, 8.0 hours and 24.0 hours after administration. The blood samples were stored in EDTA-2K tubes, and centrifuged for 6 minutes at 6000 rpm, at 4° C. to separate the blood plasma. The plasma samples were stored at −80° C. The mice were fed four hours after administration.

Series [3] concerns the target T1, SHP-2 full-length protein (Homo sapiens, UniProt Q06124).
T1 construct: purchased BPS Bioscience 79330
T1 sequence (Q06124 1-593): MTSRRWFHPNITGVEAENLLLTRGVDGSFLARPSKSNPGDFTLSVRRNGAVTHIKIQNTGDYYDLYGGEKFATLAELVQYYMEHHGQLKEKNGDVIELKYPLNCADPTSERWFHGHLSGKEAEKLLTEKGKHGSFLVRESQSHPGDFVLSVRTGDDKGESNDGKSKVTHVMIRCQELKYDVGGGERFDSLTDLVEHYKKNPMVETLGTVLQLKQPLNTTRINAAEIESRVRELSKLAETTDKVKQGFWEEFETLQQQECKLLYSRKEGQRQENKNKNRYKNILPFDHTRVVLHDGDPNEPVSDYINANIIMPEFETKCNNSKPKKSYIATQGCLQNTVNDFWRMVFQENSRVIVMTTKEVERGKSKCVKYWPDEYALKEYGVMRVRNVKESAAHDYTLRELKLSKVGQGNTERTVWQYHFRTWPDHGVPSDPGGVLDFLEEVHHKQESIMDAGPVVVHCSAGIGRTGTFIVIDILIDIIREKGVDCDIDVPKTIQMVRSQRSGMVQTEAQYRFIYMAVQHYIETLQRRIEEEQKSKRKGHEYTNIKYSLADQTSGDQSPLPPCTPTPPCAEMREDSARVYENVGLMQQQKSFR
The experiment in a line: Inhibition of SHP-2 kinase activity (Homogeneous Full Length SHP-2 Assay Kit). Format: biochemical. The conditions noted are these: relative IC50, full-length SHP-2 with activating peptide. As for the experimental part:
The objective of this test is to determine the inhibitory effect of the compounds on SHP-2 full-length protein allosteric activity.
Experimental method: Homogeneous Full Length SHP-2 Assay Kit (BPS Bioscience, #79330) was used to determine the in vitro SHP-2 activity. First, 18 μL of Master Mix was added to a 96-well low adsorption microplate (NUNC, #267342), i.e., the reaction buffer with a final concentration of 1× comprised 0.5 μM SHP-2 activating Peptide and 5 mM DTT. After centrifugation, 5 μL of test compound/DMSO was added to each well (the final DMSO content was 1%, V/V, the test compound was dissolved in DMSO to 1 mM, a three-fold serial dilution was carried out to obtain ten concentrations, the final concentration of the reaction system ranged from 1 μM to 0.05 nM). SHP-2 was diluted in the 1× reaction buffer to a final concentration of 0.06 nM, and the resulting solution was added to the reaction microplate (2 μL per well). Full activity control (compound only with DMSO) and full inhibition control (no SHP-2) were set up on the reaction plate. After centrifugation, the reaction mixture was incubated at room temperature for 60 minutes.
After completion of the incubation, 25 μL of Substrate solution, which comprised Substrate with a final concentration of 10 μM and 5 mM DTT, was added to each well. After centrifugation, the reaction mixture was incubated at room temperature for 30 minutes. After completion of the reaction, readings were measured on the Synergy H1 full-function microplate reader (BioTek) (excitation wavelength: 340 nm, emission wavelength: […], gain value: 75).
The IC50 value of the test compounds was calculated by fitting the percentage inhibition rate and data of ten concentrations to a four-parameter nonlinear logic formula with GraphPad prism.

Series [4] in a line: Pharmacokinetics assay in rats, oral administration. Format: in vivo. Particulars: rat; male SD rats, oral 5 mg/kg, plasma. As for the experimental part:
SD rats were used as test animals.
5 g of hydroxyethyl cellulose (HEC, CMC-Na, viscosity: 800-1200 Cps) was dissolved in 1000 mL of purified water, and 10 g of Tween80 was added. The solution was mixed well to form a clear solution.
The solution was shaked well and subjected to ultrasound for 15 minutes to obtain a colorless and clear solution with a concentration of 0.5 mg/mL.
After an overnight fast, male SD rats (3 rats per group) were administrated orally with the test compounds at an administration dose of 5 mg/kg and an administration volume of 10 mL/kg.
0.2 mL of blood was taken from jugular vein before administration and at 0.5 hour, 1.0 hour, 2.0 hours, 4.0 hours, 6.0 hours, 8.0 hours and 24.0 hours after administration. The blood samples were stored in EDTA-2K tubes, and centrifuged for 6 minutes at 6000 rpm, at 4° C. to separate the blood plasma. The plasma samples were stored at −80° C. The rats were fed four hours after administration.

[5] abbreviates: mouse, iv, i.v. 1 mg/kg, plasma.

From patent publication US20210355105A1, “REGULATOR OF NITROGEN-CONTAINING HETEROAROMATIC DERIVATIVES, PREPARATION METHOD THEREFOR AND USE THEREOF” (Jiangsu Hansoh Pharmaceutical Group Co., Ltd., priority 2018, published 2021) come the findings set out here.

As a reminder, the AUC(0-inf) is the area under the concentration-time curve extrapolated to infinity. A high value points to high exposure. By MRT is commonly meant the average time that molecules of a dose stay in the body. A word on the clearance: it is the volume of plasma or blood freed of the substance per unit of time. Usually half-life stands for the time in which the quantity being followed falls by half. Higher therefore signals slow loss. For orientation: IC50 means the concentration at which inhibition is half-maximal. As a reminder, the Cmax is the maximum level reached in the sampled fluid or tissue. What is called Tmax is the time from dosing to the highest level. Turning to `Nc1nc(N2CCC3(CC2)Cc2ccccc2[C@H]3N)c(F)nc1Sc1ccnc(N)c1Cl` [Example 179, (S)-1′-(6-amino-5-((2-amino-3-chloropyridin-4-yl)thio)-3-fluoropyrazin-2-yl)-1,3-dihydrospiro[indene-2,4′-piperidin]-1-amine], in series [1] (female mice), the “Body weight (Mean) Day 1” value was 22.07 g, the “Body weight (Mean) Day 16” value was determined as 25.09 g and the “Body weight changes ΔW/W1 (Mean) Day 16” value turned out to be 13.80%. Besides, in series [1] (male mice), the “Body weight (Mean) Day 1” value is listed as 23.01 g, the “Body weight (Mean) Day 16” value is on record as 28.30 g and the “Body weight changes ΔW/W1 (Mean) Day 16” value was 23.25%. The F in series [2] (printed in the i.v. 1 mg/kg table) worked out at 71%. In series [2] (setting [5]), this molecule displayed an AUC(0-inf) of 736 ng·h/mL, a C0 of 264 ng/mL, an MRT of 9.04 h and a clearance of 22.6 mL/min/kg. Moreover, the half-life in series [2] (setting [5]) was 7.74 h. In addition, in series [2] (mouse, iv, i.v. 1 mg/kg, plasma, read-out: Vss), the Vd stood at 12.3 L/kg. The IC50 in series [3] stood at 1.75 nM. Besides, in series [4], the AUC(0-inf) was found to be 3840 ng·h/mL, the Cmax amounted to 201 ng/mL, the MRT came to 15.2 h and the Tmax was 2 h. This molecule had a half-life in series [4] of 10.5 h.

Turning to `Nc1nc(N2CCC3(CC2)Cc2ncsc2[C@H]3N)c(F)nc1Sc1ccnc(N)c1Cl` [Example 181, (S)-1′-(6-amino-5-((2-amino-3-chloropyridin-4-yl)thio)-3-fluoropyrazin-2-yl)-4,6-dihydrospiro[cyclopenta[d]thiazole-5,4′-piperidin]-6-amine], the IC50 in series [3] was found to be 3.07 nM. For the same molecule, in series [4], the AUC(0-inf) was found to be 5890 ng·h/mL, the peak level (Cmax) was 614 ng/mL, the MRT turned out to be 5.84 h and the Tmax came to 2 h. Also, the half-life in series [4] was 3.55 h.

For `Cc1nc(N2CCC3(CC2)Cc2ncsc2[C@H]3N)c(CO)nc1Sc1ccnc(N)c1Cl` [Example 171, (S)-(6-((2-amino-3-chloropyridin-4-yl)thio)-3-(6-amino-4,6-dihydrospiro[cyclopenta[d]thiazole-5,4′-piperidin]-1′-yl)-5-methylpyrazin-2-yl)methanol], the IC50 in series [3] was 1.73 nM. In addition, in series [4], the AUC(0-inf) worked out at 1780 ng·h/mL, the Cmax is 189 ng/mL, the MRT turned out to be 5.78 h and the Tmax came to 1 h. The molecule also gave a half-life in series [4] of 3.69 h.

Regarding `Nc1nccc(Sc2cnc(N3CCC4(CC=C(C5CC5)[C@H]4N)CC3)cn2)c1Cl` [Example 144, (S)-8-(5-((2-amino-3-chloropyridin-4-yl)thio)pyrazin-2-yl)-2-cyclopropyl-8-azaspiro[4.5]dec-2-en-1-amine], the IC50 in series [3] came to 1.48 nM. In series [4], the AUC(0-inf) is 3310 ng·h/mL, the concentration peaked (Cmax) at 247 ng/mL, the MRT was 9.24 h and the Tmax was found to be 1 h. In addition, the half-life in series [4] is 6.49 h.
